The target in this test is T1, human P2X7 (Homo sapiens, UniProt Q99572).
T1 construct: 1321N1 cells stably expressing the full length human P2X7 gene (1321N1-hP2X7)
T1 sequence (Q99572 1-595): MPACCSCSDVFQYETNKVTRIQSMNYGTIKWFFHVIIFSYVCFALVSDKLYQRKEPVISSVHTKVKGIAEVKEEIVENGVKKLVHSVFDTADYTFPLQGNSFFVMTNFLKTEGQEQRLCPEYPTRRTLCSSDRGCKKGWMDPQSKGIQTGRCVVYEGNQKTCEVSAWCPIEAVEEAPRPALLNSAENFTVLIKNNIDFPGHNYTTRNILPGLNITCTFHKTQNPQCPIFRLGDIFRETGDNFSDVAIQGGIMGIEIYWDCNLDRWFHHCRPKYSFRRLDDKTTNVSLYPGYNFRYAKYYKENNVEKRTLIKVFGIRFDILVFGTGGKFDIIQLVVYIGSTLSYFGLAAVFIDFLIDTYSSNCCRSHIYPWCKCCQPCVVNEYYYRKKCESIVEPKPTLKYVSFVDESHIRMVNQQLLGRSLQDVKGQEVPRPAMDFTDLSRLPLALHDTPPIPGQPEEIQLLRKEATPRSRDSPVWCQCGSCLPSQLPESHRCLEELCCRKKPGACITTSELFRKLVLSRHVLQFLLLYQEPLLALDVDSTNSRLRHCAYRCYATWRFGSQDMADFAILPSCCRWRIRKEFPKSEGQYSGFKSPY
In words: P2X7 modulator pIC50 of Table 1 (assay not given; Intracellular Calcium Flux (FLIPR) Assay assumed). Type of test: cell-based. The method, boiled down:
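1321N1 cells expressing human P2X7, fluo-3 loaded, pre-equilibrated 20 min at RT with antagonist; 100 μM BzATP agonist added and calcium fluorescence recorded 5 min on FLIPR. BzATP-evoked maximum normalised to 5 μM ionomycin response. HEK293 rat P2X7 cells used 5 μM BzATP.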
(In general: Calcium assays in cells follow changes in intracellular calcium, usually with a dye or a luminescent sensor.)
In the case of `CCn1c(=O)cnn(-c2ccc(C)c(NC(=O)C3=CN(C)C(=O)N[C@H]3c3ccc(F)cc3)c2)c1=O` [Compound 64, (S)-4-(4-Fluoro-phenyl)-1-methyl-2-oxo-1,2,3,4-tetrahydro-pyrimidine-5-carboxylic acid [5-(4-ethyl-3,5-dioxo-4,5-dihydro-3H-[1,2,4]triazin-2-yl)-2-methyl-phenyl]-amide], the half-maximal inhibitory concentration (IC50) (commonly the concentration that gives 50% inhibition) is 16.6 nM. With `Cc1ccc2c(C)c(NC(=O)C3=CN(C)C(=O)N[C@H]3c3ccc(F)cc3)ccc2n1` [Compound 65, (S)-4-(4-Fluoro-phenyl)-1-methyl-2-oxo-1,2,3,4-tetrahydro-pyrimidine-5-carboxylic acid (2,5-dimethyl-quinolin-6-yl)-amide], the half-inhibitory concentration (IC50) was 15.5 nM. Regarding `Cc1cc(Cl)c(-n2cccc(C)c2=O)cc1NC(=O)C1=CN(C)C(=O)N[C@H]1c1ccc(F)cc1` [Compound 66, (S)-4-(4-Fluoro-phenyl)-1-methyl-2-oxo-1,2,3,4-tetrahydro-pyrimidine-5-carboxylic acid [4-chloro-2-methyl-5-(3-methyl-2-oxo-2H-pyridin-1-yl)-phenyl]-amide], the IC50 was 19.5 nM. In the case of `Cc1ccc(-n2ccc(=O)n(C)c2=O)cc1NC(=O)C1=CN(C)C(=O)N[C@H]1c1ccc(F)cc1` [Compound 68, (S)-4-(4-Fluoro-phenyl)-1-methyl-2-oxo-1,2,3,4-tetrahydro-pyrimidine-5-carboxylic acid [2-methyl-5-(3-methyl-2,4-dioxo-3,4-dihydro-2H-pyrimidin-1-yl)-phenyl]-amide] it was 37.6 nM; in that of `Cc1cc(F)c(-n2ncccc2=O)cc1NC(=O)C1=CN(C)C(=O)N[C@H]1c1ccc(F)cc1` [Compound 69, (S)-4-(4-Fluoro-phenyl)-1-methyl-2-oxo-1,2,3,4-tetrahydro-pyrimidine-5-carboxylic acid [4-fluoro-2-methyl-5-(6-oxo-6H-pyridazin-1-yl)-phenyl]-amide], 19.3 nM. In the case of `Cc1cc(F)c(-c2cccn(C)c2=O)cc1NC(=O)C1=CN(C)C(=O)N[C@H]1c1ccc(F)cc1` [Compound 70, (S)-4-(4-Fluoro-phenyl)-1-methyl-2-oxo-1,2,3,4-tetrahydro-pyrimidine-5-carboxylic acid [4-fluoro-2-methyl-5-(1-methyl-2-oxo-1,2-dihydro-pyridin-3-yl)-phenyl]-amide] it was 33.1 nM.

As to `Cc1ccc(=O)n(-c2ccc(C)c(NC(=O)C3=CN(C)C(=O)N[C@H]3c3ccc(F)cc3)c2)c1` [Compound 71, (S)-4-(4-Fluoro-phenyl)-1-methyl-2-oxo-1,2,3,4-tetrahydro-pyrimidine-5-carboxylic acid [2-methyl-5-(5-methyl-2-oxo-2H-pyridin-1-yl)-phenyl]-amide], the IC50 is 43.2 nM. To `CN1C=C(C(=O)Nc2cc(-c3ccnn(C)c3=O)ccc2F)[C@H](c2ccc(F)cc2)NC1=O` [Compound 72, (S)-4-(4-Fluoro-phenyl)-1-methyl-2-oxo-1,2,3,4-tetrahydro-pyrimidine-5-carboxylic acid [2-fluoro-5-(2-methyl-3-oxo-2,3-dihydro-pyridazin-4-yl)-phenyl]-amide] belongs 15.7 nM; to `Cc1cnn(-c2cc(NC(=O)C3=CN(C)C(=O)N[C@H]3c3ccc(F)cc3)c(C)cc2F)c(=O)c1` [Compound 73, (S)-4-(4-Fluoro-phenyl)-1-methyl-2-oxo-1,2,3,4-tetrahydro-pyrimidine-5-carboxylic acid [4-fluoro-2-methyl-5-(4-methyl-6-oxo-6H-pyridazin-1-yl)-phenyl]-amide], 56.9 nM.

For the molecule `CN1C=C(C(=O)Nc2cc(-n3ncccc3=O)ccc2F)[C@H](c2ccc(F)cc2)NC1=O` [Compound 74, (S)-4-(4-Fluoro-phenyl)-1-methyl-2-oxo-1,2,3,4-tetrahydro-pyrimidine-5-carboxylic acid [2-fluoro-5-(6-oxo-6H-pyridazin-1-yl)-phenyl]-amide], the IC50 was 101 nM.

Source of the values: patent US8435990B2, “Dihydropyrimidone amides as P2X7 modulators” (Roche Palo Alto LLC, priority 2009, dated 2013).
